Laboratory results taken from article PMC1192819, “Molecular cloning and characterization of a nuclear androgen receptor activated by 11-ketotestosterone” (Reproductive biology and endocrinology : RB&E, 2005).

Key:
[1] = molecular target: T1, stickleback ARβ2 (reticulocyte lysate) (Gasterosteus aculeatus, UniProt Q801Z2); experiment: Ligand competition assay with 1 nM [3H]-DHT, ARβ2 containing reticulocyte extract; type: binding, three-spined stickleback (Gasterosteus aculeatus)
T1 sequence (Q801Z2 1-735): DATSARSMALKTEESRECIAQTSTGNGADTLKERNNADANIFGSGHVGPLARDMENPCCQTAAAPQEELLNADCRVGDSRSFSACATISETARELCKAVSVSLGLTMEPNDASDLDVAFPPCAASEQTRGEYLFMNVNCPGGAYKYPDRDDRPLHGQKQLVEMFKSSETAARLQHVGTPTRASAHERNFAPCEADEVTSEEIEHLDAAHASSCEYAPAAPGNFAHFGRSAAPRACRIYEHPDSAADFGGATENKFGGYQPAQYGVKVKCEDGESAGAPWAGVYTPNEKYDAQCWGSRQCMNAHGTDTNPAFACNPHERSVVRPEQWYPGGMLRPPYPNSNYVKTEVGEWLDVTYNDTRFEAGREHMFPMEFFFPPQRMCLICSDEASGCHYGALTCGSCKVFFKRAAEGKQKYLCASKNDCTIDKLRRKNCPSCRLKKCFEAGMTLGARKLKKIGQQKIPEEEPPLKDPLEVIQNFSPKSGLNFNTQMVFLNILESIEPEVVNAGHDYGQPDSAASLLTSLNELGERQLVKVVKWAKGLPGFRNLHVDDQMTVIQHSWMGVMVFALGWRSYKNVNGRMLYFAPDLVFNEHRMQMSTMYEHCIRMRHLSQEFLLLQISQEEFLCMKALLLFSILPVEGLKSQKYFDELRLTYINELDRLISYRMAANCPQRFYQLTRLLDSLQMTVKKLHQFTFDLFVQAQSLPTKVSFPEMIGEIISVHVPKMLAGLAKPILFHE
Description: The excised AR pBK CMV clones were digested with XbaI and EcoRI and the inserts were gel purified prior to ligation into the pCMV-TNT vector (Promega) between XbaI and EcoRI. […] AR was expressed by introducing the pCMV-TNT into the TNT coupled reticulocyte lysate system (Promega) according to the manufacturer's instructions. The size of the expressed products was determined by addition of S^35-methionin to the reticulocyte lysate system. The obtained protein suspension was analyzed on a denaturing 8% SDS PAGE and the sizes were determined using prestained SDS-PAGE broad range protein molecular weight standard (Bio-Rad) and a control luciferase protein of 62 kDa included in the reticulocyte lysate system (Promega). For use in binding assays AR was expressed in the absence of radioactive S^35-methionein and stored at 4°C until further used in recombinant binding assay experiments.
(§1) The steroid specificity of receptor binding was examined using a competitive binding assay. […] Following incubation, the reaction was terminated by addition of DCC and centrifugation and the specific binding in each tube was determined as described above.

[2] = tested on: AR protein and AR mRNA in stickleback kidney; experiment: Hormone regulation of kidney AR protein (radioreceptor assay) and AR mRNA (slot blot); type: in vivo, three-spined stickleback (Gasterosteus aculeatus); details: data not shown; for regulation of AR protein (radioreceptor assay): sticklebacks exposed for 6 days
Description: (§2) The fish were anesthetized with 0.1% (v/v) 2-phenoxyethanol (Sigma, St. Louis, MO, USA) and implanted intraperitoneally with Silclear silicone tubing (10-mm length, 0.6-mm inner diameter, 1.2-mm outer diameter) containing steroids dissolved in cocoa butter. […] KA was used as this steroid is converted into KT by the fish. Tubes containing cocoa butter alone were used as controls. Following implantation the fish were maintained in 50-liter aquaria containing brackish water (0.5% salinity) at 20°C under LD 16:8 h. At sampling fish were decapitated and the kidneys were excised, frozen using liquid nitrogen, and stored at -70°C. A number of experiments were performed as follows. Spiggin mRNA was measured in post-breeding females that were dissected 2 days following implantation of tubes. Cytosolic androgen-receptors were measured in females and in castrated males. Males were castrated under anesthesia as above, by making a 1.5 mm long incision into the abdominal cavity on each side and removing the testes using forceps. The females and the castrated males were implanted with control and high dose tubes and dissected after 6 days. AR mRNA was studied in females implanted for 12 h, 2 and 16 days (separate experiments) with control and high dose tubes and in males castrated as above and implanted for 10 days with control tubes and high doses of KA or E2.
(§3) Total RNA was extracted using Tri Reagent™ (Sigma). Aliquots of 10 μg of total RNA were mixed with denaturing solution (6 × SSC, 7% (v/v) formaldehyde) and transferred onto a nylon membrane (Amersham Pharmacia Biotech) using a Minifold II Slot Blot Apparatus (Schleicher and Schuell, Keene, NH, USA). Membranes were probed using either a randomly primed [α-^32P]-dCTP radiolabelled AR cDNA fragment (918 base pairs) that was isolated by reverse transcriptase-polymerase chain reaction and sequenced as above, or a randomly primed [α-^32P]-dCTP radiolabelled spiggin-α cDNA. Hybridizations were performed at 65°C overnight (6 × SCC, 0.1% (w/v) SDS, 100 μg ml^-1 tRNA, and 5 × Denhardt's solution). The membranes were washed for 2 × 30 minutes at 42°C and 65°C in 0.1 × SCC, 0.1% (w/v) SDS whereafter Hyperfilm™-MP film was exposed at -70°C. The films were visualized using Curix 60 Film Developer. Following AR and spiggin mRNA determination the membranes were stripped and analyzed for 18S rRNA using a cDNA fragment as internal control. Each AR or spiggin transcript was then semi-quantified using Quantity ONE 4.2.3 (Bio-Rad, Laboratories, Inc, Hercules, CA, USA) in relation to its internal 18S transcript.
Aliquots (250 μl) of the nuclear or cytosolic preparations were added to each tube, the tubes were vortexed and incubated over night at 4°C. To stop the binding reaction, 250 μl DCC was added to each tube. The tubes were vortexed and the suspensions were incubated for 5 min at 4°C, before spinning at 3,000 × g at 4°C for 5 min. The supernatants were decanted into 7 ml scintillation vials, 5 ml of standard scintillation cocktail was added and the radioactivity in each sample was measured in a liquid scintillation counter (Beckman LS 6000SC, Beckman Instruments, Fullerton, CA). The procedure used for the expressed recombinant ARβ2 was modified as follows. […] The expressed proteins were diluted 1:100 and aliquots (100 μl) were added to each reaction tube. The tubes were vortexed and incubated over night at 4°C. To stop the binding reaction, 200 μl DCC was added to each tube. The tubes were vortexed and the suspension were incubated for 5 min at 4°C, before spinning at 3,000 × g at 4°C for 5 min. 250 μl of the supernatant was transferred into 5 ml scintillation vials and 4 ml of standard scintillation cocktail was added before the radioactivity in each sample was measured in a liquid scintillation counter (Wallac 1409, Wallac Oy, Turku, Finland).

[3] = tested on: spiggin mRNA in adult female stickleback kidney; experiment: Induction of spiggin mRNA in stickleback kidney after steroid implants (slot blot); type: in vivo, three-spined stickleback (Gasterosteus aculeatus)
Description: as §2, §3

[4] = tested on: spiggin mRNA in adult female stickleback kidney; details: cited from earlier work
[5] = molecular target: T2, AR in stickleback kidney cytosolic extracts (Gasterosteus aculeatus, UniProt Q801Z1); experiment: Ligand competition assay with 1 nM [3H]-DHT, kidney cytosolic extracts; type: binding, three-spined stickleback (Gasterosteus aculeatus)
T2 sequence (Q801Z1 1-682): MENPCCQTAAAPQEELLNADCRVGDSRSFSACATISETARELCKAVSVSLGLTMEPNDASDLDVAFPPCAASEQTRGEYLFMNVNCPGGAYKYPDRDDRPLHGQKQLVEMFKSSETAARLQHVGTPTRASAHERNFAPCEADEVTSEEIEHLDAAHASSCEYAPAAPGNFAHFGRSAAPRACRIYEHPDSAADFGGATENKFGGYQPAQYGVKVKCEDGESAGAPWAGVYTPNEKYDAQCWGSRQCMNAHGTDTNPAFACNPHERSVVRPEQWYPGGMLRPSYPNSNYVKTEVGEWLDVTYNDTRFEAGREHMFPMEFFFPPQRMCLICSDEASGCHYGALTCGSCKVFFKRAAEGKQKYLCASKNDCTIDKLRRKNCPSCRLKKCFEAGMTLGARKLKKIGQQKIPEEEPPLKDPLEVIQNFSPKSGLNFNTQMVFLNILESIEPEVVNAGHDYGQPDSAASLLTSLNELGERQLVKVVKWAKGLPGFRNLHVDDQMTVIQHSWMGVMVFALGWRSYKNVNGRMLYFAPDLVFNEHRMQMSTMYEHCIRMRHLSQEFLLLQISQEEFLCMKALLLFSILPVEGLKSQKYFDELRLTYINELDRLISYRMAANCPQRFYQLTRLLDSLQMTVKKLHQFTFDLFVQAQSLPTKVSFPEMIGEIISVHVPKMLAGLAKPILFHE
Description: as §1

stickleback ARβ2 = experiment: ARE-luciferase trans-activation assay, stickleback ARβ2 in transfected HepG2 and ZFL cells; type: cell-based, three-spined stickleback (Gasterosteus aculeatus); details: 40 h, versus control
Description: Two liver epithelial cell lines were used to test receptor activity. HepG2 cells (ATCC, Manassas, VA) were maintained in DMEM supplemented with 10% FCS and non-essential amino acids. ZFL cells (ATCC) were maintained in 50% L-15 Leibovitz, 15% […] and 35% DMEM supplemented with 10% FCS (Gibco, Paisley, Scotland, UK) and 50 ng ml-1 EGF (Sigma). Cells were cultured at 37°C (HepG2) or 28°C (ZFL) in 5% CO2. The transfection experiments were initiated by replacing the tissue culture medium with fresh phenol-free medium supplemented with charcoal stripped FCS and the cells were seeded on 24-well plates. Transfections were performed at 90–95% confluence using 1,5 μl Lipofectamine 2000 (Invitrogen, Carlsbad, CA, USA) and 0,6 μg DNA per well. Transfected DNA contained 60 ng pRL (Promega), 270 ng androgen response element (ARE) luciferase reporter vector, 270 ng stickleback ARβ2 expression vector or 270 ng human AR expression vector (pCMVhAR) while 270 ng empty TNT cloning vector was used to control background luciferase levels following transfections. Two different ARE containing promoter constructs were tested, one containing 3 separate ARE (HRE; slp-ARU) and a second one construct (slp-HRE2) containing 4 copies of the ARE with high affinity for R1881, a synthetic androgen, and low affinity for dexamethasone, a synthetic glucocorticoid.
After 16 h the transfection medium was replaced with fresh phenol-free medium, supplemented with charcoal stripped FCS, containing different steroid hormones. The cells were exposed to the hormones for 40 h and luciferase levels were detected using the Dual Luciferase Assay kit (Promega) in a TD 20/20 Luminometer (Turner Designs, Sunnyvale, CA). For each cell line, transfection assay was performed for each concentration with n = 4 and the luciferase value of each assay were normalized to its corresponding Renilla luciferase activity. Each experiment was repeated a minimum of 3 times. The fold-induction is presented as luciferase values normalized against the control. The control levels were arbitrarily set to 1.0 for each cell line.

rainbow trout ARα = details: COS-1 cell line; read-out: IC50 (ligand binding); cited from earlier work

| Structure (SMILES) | regulation of AR mRNA (slot blot) [2] | regulation of AR protein (radioreceptor assay) [2] | binding observed (competition for [3H]-DHT) [5] | other results |
| --- | --- | --- | --- | --- |
| C[C@]12CC[C@@H]3c4ccc(O)cc4CC[C@H]3[C@@H]1CC[C@@H]2O [E2, 17β-estradiol] | repressor | repressor |  | EC50 ([1]; read-out: EC50 (competition for [3H]-DHT binding)): 64.61 ± 0.28 nM |
| C[C@]12CCC(=O)C=C1CC[C@@H]1[C@@H]2C(=O)C[C@]2(C)C(=O)CC[C@@H]12 [KA, 11-ketoandrostenedione] | None of the three tested androgens regulated | None of the three tested androgens regulated |  | effectiveness at increasing kidney spiggin mRNA levels relative to T ([3]; 25 μg implant dose, females): 50 times; increase in spiggin mRNA levels ([3]; females implanted with 25 μg KA, 2 days, versus control): 30 fold; spiggin mRNA induction after longer exposures ([4]; 16 days exposure): only observed with KA |
| CC12CCC(=O)C=C1CCC1C2CCC2(C)C1CCC2(O)C(O)CO (stereo not drawn) [20β-S, 17,20β,21-trihydroxy-4-pregnen-3-one] |  |  | not |  |
| C[C@@H](O)[C@@]1(O)CC[C@H]2[C@@H]3CCC4=CC(=O)CC[C@]4(C)[C@H]3CC[C@@]21C [17,20β-P, 17,20β-dihydroxy-4-pregnen-3-one] |  |  | not |  |
| C[C@]12CCC(=O)C=C1CC[C@@H]1[C@@H]2[C@@H](O)C[C@@]2(C)[C@H]1CC[C@]2(O)C(=O)CO [F, cortisol] |  |  | not | binding (competition for [3H]-DHT) [1]: poor binding |
| C[C@]12CCC(=O)C[C@@H]1CC[C@@H]1[C@@H]2CC[C@]2(C)[C@@H](O)CC[C@@H]12 [DHT, 5α-dihydrotestosterone] | None of the three tested androgens regulated | None of the three tested androgens regulated |  | induction of luciferase activity (stickleback ARβ2; HepG2 cells): 4.1 fold; induction of luciferase activity (stickleback ARβ2; ZFL cells): 4.5 fold; IC50 (rainbow trout ARα): 0.6 nM |
| C[C@]12CC[C@H]3[C@@H](CCC4=CC(=O)CC[C@@]43C)[C@@H]1CC[C@@H]2O [T, testosterone] | None of the three tested androgens regulated | None of the three tested androgens regulated |  | spiggin induction ([3]; 1 μg implant dose, females): not inducing spiggin production |
| CC(C)C(=O)Nc1ccc([N+](=O)[O-])c(C(F)(F)F)c1 [flutamide] |  |  |  | blocking of androgen induction of spiggin protein and mRNA synthesis ([4]; anti-androgen, ref 25 and Olsson, Berg, Lindberg, unpublished results): can be blocked |
